Tests used:
[1] = system: A2780 (Ovarian Carcinoma); test: Bliss excess, mean over the matrix (fraction); higher = more synergy
Procedure, shortened: (§1)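 Cell lines in DMEM/F12 or RPMI with 10% FBS were plated in 1536-well plates, held 24 hours at 37°C, 5% CO2, then given two-drug dose matrices for 72 hours (DMSO typically 0.2%). Viability was read by CellTiter-Glo 2.0 luminescence and scaled as inhibition from 0 (vehicle wells) to 1 (blank wells). Combination Emax is the second-highest inhibition in the matrix; Bliss excess is observed combination effect minus expected EA + EB − EA·EB, EA and EB being single-agent effects.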

[2] = system: EPLC-272H (Other Solid Carcinomas); test: as above
Procedure, shortened: as §1

[3] = system: HT55 (Colorectal Carcinoma); test: as above
Procedure, shortened: as §1

[4] = system: NCI-H716 (Colorectal Carcinoma); test: as above
Procedure, shortened: as §1

PEO1 (Ovarian Carcinoma) = test: as above
Procedure, shortened: as §1

A204 (Rhabdomyosarcoma) = test: combination Emax (second highest fraction inhibited in the dose matrix, 72 h); higher = more inhibition; extreme values may be limits of the assay
Procedure, shortened: as §1

[5] = system: A253 (Head and Neck Carcinoma); test: as above
Procedure, shortened: as §1

AU565 (Breast Carcinoma) = test: as above
Procedure, shortened: as §1

[6] = system: CA46 (Burkitt's Lymphoma); test: as above
Procedure, shortened: as §1

COLO-792 (Melanoma) = test: as above
Procedure, shortened: as §1

EW-16 (Ewing's Sarcoma) = test: as above
Procedure, shortened: as §1

[7] = system: G-402 (Other Solid Carcinomas); test: as above
Procedure, shortened: as §1

IM-9 (Non-Cancerous) = test: as above
Procedure, shortened: as §1

[8] = system: JHH-2 (Hepatocellular Carcinoma); test: as above
Procedure, shortened: as §1

NB13 (Neuroblastoma) = test: as above
Procedure, shortened: as §1

[9] = system: NCI-H1651 (Lung Adenocarcinoma); test: as above
Procedure, shortened: as §1

[10] = system: NCI-H2228 (Lung Adenocarcinoma); test: as above
Procedure, shortened: as §1

[11] = system: OACp4C (Esophageal Adenocarcinoma); test: as above
Procedure, shortened: as §1

RH-41 (Rhabdomyosarcoma) = test: as above
Procedure, shortened: as §1

[12] = system: SW620 (Colorectal Carcinoma); test: as above
Procedure, shortened: as §1
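Throughout, for Bliss excess, mean over the matrix: after 72 h of two-drug dosing.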

Structure (SMILES)	Bliss excess [1]	Bliss excess [2]	Bliss excess [3]	Bliss excess [4]	Bliss excess (PEO1 (Ovarian Carcinoma))	combination Emax (A204 (Rhabdomyosarcoma))	combination Emax [5]	combination Emax (AU565 (Breast Carcinoma))	combination Emax [6]	combination Emax (COLO-792 (Melanoma))	combination Emax (EW-16 (Ewing's Sarcoma))	combination Emax [7]	combination Emax (IM-9 (Non-Cancerous))	combination Emax [8]	combination Emax (NB13 (Neuroblastoma))	combination Emax [9]	combination Emax [10]	combination Emax [11]	combination Emax (RH-41 (Rhabdomyosarcoma))	combination Emax [12]
CC1(C)CCC(CN2CCN(c3ccc(C(=O)NS(=O)(=O)c4ccc(NCC5CCOCC5)c([N+](=O)[O-])c4)c(Oc4cnc5[nH]ccc5c4)c3)CC2)=C(c2ccc(Cl)cc2)C1 [Venetoclax] + C1CN(CCC1(C(=O)N[C@@H](CCO)C2=CC=C(C=C2)Cl)N)C3=NC=NC4=C3C=CN4 [Capivasertib] (first compound max 1 µM, 7x7, partner max 3 µM)	-0.0223	-0.0465	-0.0183	-0.0595	-0.0564	0.335	0.463	0.46	0.112	0.381	0.236	0.425	0.632	0.625	0.465	0.159	0.405	0.634	0.945	0.151
Cc1c2c(nn1C)CSCc1cc(n(C)n1)CSc1cc(c3ccccc3c1)OCCCc1c(C(=O)O)n(C)c3c-2c(Cl)ccc13 [AZD5991] + C[C@@H]1COCCN1C2=NC(=NC(=C2)C3(CC3)[S@](=N)(=O)C)C4=C5C=CNC5=NC=C4 [AZD6738] (first compound max 1 µM, 7x7, partner max 10 µM)	-0.0032	0.0151	0.0901	0.0138	0.0062	0.773	0.976	1	0.449	1	0.756	0.995	1	0.703	0.952	0.714	0.433	0.851	1	0.543
Cc1c2c(nn1C)CSCc1cc(n(C)n1)CSc1cc(c3ccccc3c1)OCCCc1c(C(=O)O)n(C)c3c-2c(Cl)ccc13 [AZD5991] + C1CN(CCC1(C(=O)N[C@@H](CCO)C2=CC=C(C=C2)Cl)N)C3=NC=NC4=C3C=CN4 [Capivasertib] (first compound max 1 µM, 7x7, partner max 3 µM)	-0.0233	0.0341	-0.0129	0.0001	-0.0428	0.689	0.92	1	0.351	0.988	0.195	0.984	0.756	0.604	0.349	0.254	0.426	0.783	1	0.16
CC(=O)c1c(C)c2cnc(Nc3ccc(N4CCNCC4)cn3)nc2n(C2CCCC2)c1=O [Palbociclib] + Cn1cnc2c(F)c(Nc3ccc(Br)cc3Cl)c(C(=O)NOCCO)cc21 [Selumetinib] (first compound max 10 µM, 7x7, partner max 10 µM)	0.0327	0.024	0.0782	-0.0843	-0.0055	0.399	0.189	0.277	0.345	0.5	0.311	0.462	0.906	0.463	0.333	0.0478	0.335	0.557	0.269	0.72
Cc1c2c(nn1C)CSCc1cc(n(C)n1)CSc1cc(c3ccccc3c1)OCCCc1c(C(=O)O)n(C)c3c-2c(Cl)ccc13 [AZD5991] + CCN(CCO)CCCOc1ccc2c(Nc3cc(CC(=O)Nc4cccc(F)c4)[nH]n3)ncnc2c1 [AZD2811] (first compound max 1 µM, 7x7, partner max 1 µM)	0.0561	0.0705	0.0472	-0.0013	0.0502	0.688	0.896	1	0.193	0.977	0.808	0.946	1	0.325	0.615	0.356	0.296	0.827	1	0.512
CC(=O)c1c(C)c2cnc(Nc3ccc(N4CCNCC4)cn3)nc2n(C2CCCC2)c1=O [Palbociclib] + Cc1c2c(nn1C)CSCc1cc(n(C)n1)CSc1cc(c3ccccc3c1)OCCCc1c(C(=O)O)n(C)c3c-2c(Cl)ccc13 [AZD5991] (first compound max 10 µM, 7x7, partner max 1 µM)	-0.0344	-0.0979	0.0046	-0.0343	-0.0483	0.37	0.635	0.998	0.304	0.836	0.415	0.839	0.714	0.368	0.389	0.143	0.247	0.46	0.911	0.466
Cc1c2c(nn1C)CSCc1cc(n(C)n1)CSc1cc(c3ccccc3c1)OCCCc1c(C(=O)O)n(C)c3c-2c(Cl)ccc13 [AZD5991] + C[C@@H](Nc1cc(F)cc(F)c1)c1cc(C(=O)N(C)C)cc2c(=O)cc(N3CCOCC3)oc12 [AZD8186] (first compound max 1 µM, 7x7, partner max 3 µM)	-0.0049	0.0238	-0.0305	-0.0335	-0.008	0.785	0.777	1	0.167	0.999	0.281	0.942	0.671	0.768	0.331	0.155	0.321	0.664	0.99	0.206
CCc1c2c(nc3ccc(O)cc13)-c1cc3c(c(=O)n1C2)COC(=O)[C@]3(O)CC [SN-38] + CN(C)CCCOc1ccc(-c2ccc3ncc4c(c3c2)n(C2CCOCC2)c(=O)n4C)cn1 [AZD0156] (first compound max 0.3 µM, 7x7, partner max 1 µM)	-0.0099	0.0536	0.0776	0.0129	-0.0037	0.59	0.881	0.8	0.758	0.361	0.978	0.745	1	0.7	0.886	0.852	0.716	0.714	0.719	0.883
C=CCn1c(=O)c2cnc(Nc3ccc(N4CCN(C)CC4)cc3)nc2n1-c1cccc(C(C)(C)O)n1 [AZD1775] + C[C@@H]1COCCN1C2=NC(=NC(=C2)C3(CC3)[S@](=N)(=O)C)C4=C5C=CNC5=NC=C4 [AZD6738] (first compound max 1 µM, partner max 10 µM)	0.0221	0.0036	0.0434	-0.0004	-0.0234	0.369	0.863	0.603	0.739	0.474	0.771	0.674	0.999	0.737	0.953	0.823	0.653	0.831	0.995	0.83
NC1(C(=O)N[C@@H](CCO)c2ccc(Cl)cc2)CCN(c2ncnc3[nH]ccc23)CC1 [Capivasertib] + C[C@@H]1COCCN1C2=NC(=NC(=C2)C3(CC3)[S@](=N)(=O)C)C4=C5C=CNC5=NC=C4 [AZD6738] (first compound max 10 µM, 7x7, partner max 10 µM)	-0.0336	-0.0353	-0.0531	-0.0317	-0.0225	0.467	0.852	0.684	0.474	0.549	0.784	0.771	0.979	0.769	0.896	0.581	0.575	0.979	0.976	0.545
Cn1cnc2c(F)c(Nc3ccc(Br)cc3Cl)c(C(=O)NOCCO)cc21 [Selumetinib] + CC(C)n1c(=O)n(C)c2cnc3cc(F)c(-c4ccc(OCCCN5CCCCC5)nc4)cc3c21 [AZD1390] (first compound max 10 µM, 7x7, partner max 0.3 µM)	-0.0369	-0.0442	-0.0388	0.0093	-0.0118	0.149	0.18	0.146	0.306	0.498	0.134	0.222	0.796	0.315	0.0733	0.125	0.203	0.43	0.131	0.615
Cc1c2c(nn1C)CSCc1cc(n(C)n1)CSc1cc(c3ccccc3c1)OCCCc1c(C(=O)O)n(C)c3c-2c(Cl)ccc13 [AZD5991] + Cc1cc2ncnn2cc1Nc1ncc2c(n1)n(C1CCOCC1)c(=O)n2C [AZD7648] (first compound max 1 µM, 7x7, partner max 10 µM)	-0.0224	-0.0575	-0.0152	-0.0646	-0.0279	0.659	0.849	1	0.281	1	0.299	0.939	0.561	0.596	0.245	0.33	0.354	0.485	1	0.213

— the supplement of paper PMC11061612
